# Results taken from patent publication US7049314B2, “Cyclopentyl indole derivatives” (Bristol-Myers Squibb Company, priority 2002, dated 2006).
# Target: T1, human serotonin transporters (Homo sapiens, UniProt P31645)
# T1 construct: expressed in transfected cells
# Assay: Serotonin Transporter Binding Assay ([3H]-citalopram displacement, HEK-hSERT cell membranes)
# Conditions: not given
# Protocol: HEK-293 cells that stably express human serotonin transporters (HEK-hSERT cells) were grown at 37° C. in 5% CO2 as a monolayer in medium consisting of EMEM supplemented with 10% fetal bovine serum and G418 sulfate (500 μg/mL). To prepare membranes for radioligand binding experiments, cells were rinsed twice with phosphate-buffered saline (138 mM NaCl, 4.1 mM KCl, 5.1 mM Na2PO4, 1.5 mM […], 11.1 mM glucose, pH 7.4). Cells were transferred from plates to polypropylene tubes (16×100 mm), centrifuged at 1,200×g for 5 min and were frozen at −80° C. until assay. Following centrifugation, pellets were resuspended by homogenization in buffer consisting of 50 mM Tris (pH 7.7 at 25° C.), 120 mM NaCl and 5 mM KCl and then centrifuged at 32,000×g for 10 min. Following centrifugation, supernatants were discarded and pellets were resuspended in buffer consisting of 50 mM Tris (pH 7.4 at 25° C.), 150 mM NaCl and 5 mM KCl. Membrane homogenates (200 μl/plate) were incubated with 1 nM [^3H]-citalopram (specific activity=85 Ci/mMol) and increasing concentrations of test compounds for 1 hr at 25° C. in a total volume of 250 μl. The assay buffer consisted of 50 mM Tris (pH 7.4 at 25° C.), 120 mM NaCl and 5 mM KCl (pH 7.4 with conc. HCl). Plates were incubated for 1 hr at 25° C., then filtered through 0.5% PEI treated Whatman GF/B filters using a Brandel cell harvester. Filters were washed three times with 3 mL of ice-cold tris wash buffer. Non-specific binding was defined with 10 μM fluoxetine. Amount of radioligand bound in the presence and absence of competitor was analyzed by plotting (−)log drug concentration versus the amount of radioligand specifically bound. The midpoint of the displacement curve (IC50, nM), signifies the potency. Ki values were calculated using the method of Cheng and Prusoff (1973).
# T1 sequence (P31645 whole entry): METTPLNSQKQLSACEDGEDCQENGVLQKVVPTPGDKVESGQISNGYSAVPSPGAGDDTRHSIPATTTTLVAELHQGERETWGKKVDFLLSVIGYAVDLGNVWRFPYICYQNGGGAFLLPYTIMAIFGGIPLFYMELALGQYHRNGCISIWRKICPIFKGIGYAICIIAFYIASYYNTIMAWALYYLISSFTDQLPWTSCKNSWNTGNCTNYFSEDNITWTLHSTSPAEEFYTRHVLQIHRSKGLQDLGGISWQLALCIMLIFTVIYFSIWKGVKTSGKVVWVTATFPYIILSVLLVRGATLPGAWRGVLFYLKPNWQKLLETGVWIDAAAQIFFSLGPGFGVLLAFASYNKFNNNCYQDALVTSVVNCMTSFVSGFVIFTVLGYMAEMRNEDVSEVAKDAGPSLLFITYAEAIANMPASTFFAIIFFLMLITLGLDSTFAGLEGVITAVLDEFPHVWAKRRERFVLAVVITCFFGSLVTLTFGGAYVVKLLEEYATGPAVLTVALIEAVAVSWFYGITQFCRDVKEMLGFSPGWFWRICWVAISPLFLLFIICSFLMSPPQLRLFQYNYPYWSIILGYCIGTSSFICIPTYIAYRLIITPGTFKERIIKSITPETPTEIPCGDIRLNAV
row,SMILES,Ki
1,"CNC1CCC(c2c[nH]c3ccc(C#N)cc23)C1 (stereo not drawn) [Compound 1, 3-(3-Methylamino-cyclopentyl)-1H-indole-5-carbonitrile]",1 to 10 nM
2,"CCNC1CCC(c2c[nH]c3ccc(C#N)cc23)C1 (stereo not drawn) [Compound 2, 3-(3-Ethylamino-cyclopentyl)-1H-indole-5-carbonitrile]",1 to 10 nM
3,"N#Cc1ccc2[nH]cc(C3CCC(N4CCCC4)C3)c2c1 (stereo not drawn) [Compound 6, 3-(3-Pyrrolidin-1-yl-cyclopentyl)-1H-indole-5-carbonitrile]",1 to 10 nM
4,"N#Cc1ccc2[nH]cc(C3CCC(N4CCOCC4)C3)c2c1 (stereo not drawn) [Compound 11, 3-(3-Morpholin-4-yl-cyclopentyl)-1H-indole-5-carbonitrile]",< 1 nM
5,"N#Cc1ccc2[nH]cc(C3CCC(N4CCCCC4)C3)c2c1 (stereo not drawn) [Compound 14, 3-(3-Piperidin-1-yl-cyclopentyl)-1H-indole-5-carbonitrile]",< 1 nM
6,"CCCNC1CCC(c2c[nH]c3ccc(C#N)cc23)C1 (stereo not drawn) [Compound 16, 3-(3-Propylamino-cyclopentyl)-1H-indole-5-carbonitrile]",< 1 nM
7,"CNC1CCC(c2cn(C)c3ccc(C#N)cc23)C1 (stereo not drawn) [Compound 17, 1-Methyl-3-(3-methylamino-cyclopentyl)-1H-indole-5-carbonitrile]",1 to 10 nM
8,"CCNC1CCC(c2cn(C)c3ccc(C#N)cc23)C1 (stereo not drawn) [Compound 18, 3-(3-Ethylamino-cyclopentyl)-1-methyl-1H-indole-5-carbonitrile]",< 1 nM
9,"CN(C)C1CCC(c2cn(C)c3ccc(C#N)cc23)C1 (stereo not drawn) [Compound 21, 3-(3-Dimethylamino-cyclopentyl)-1-methyl-1H-indole-5-carbonitrile]",1 to 10 nM
10,"CCN(C)C1CCC(c2cn(C)c3ccc(C#N)cc23)C1 (stereo not drawn) [Compound 22, 3-[3-(Ethyl-methyl-amino)-cyclopentyl]-1-methyl-1H-indole-5-carbonitrile]",1 to 10 nM
11,"CCN(CC)C1CCC(c2cn(C)c3ccc(C#N)cc23)C1 (stereo not drawn) [Compound 23, 3-(3-Diethylamino-cyclopentyl)-1-methyl-1H-indole-5-carbonitrile]",< 1 nM
12,"Cn1cc(C2CCC(N3CCCC3)C2)c2cc(C#N)ccc21 (stereo not drawn) [Compound 24, 1-Methyl-3-(3-pyrrolidin-1-yl-cyclopentyl)-1H-indole-5-carbonitrile]",1 to 10 nM

# Same assay, conditions: HEK-hSERT membranes, 1 nM [3H]-citalopram, 1 hr at 25° C.; read-out: SERT (binding Ki)
row,SMILES,Ki
1,"CN(C)C1CCC(c2c[nH]c3ccc(C#N)cc23)C1 (stereo not drawn) [Compound 3, 3-(3-Dimethylamino-cyclopentyl)-1H-indole-5-carbonitrile]",< 1 nM
2,"CCN(C)C1CCC(c2c[nH]c3ccc(C#N)cc23)C1 (stereo not drawn) [Compound 4, 3-[3-(Ethyl-methyl-amino)-cyclopentyl]-1H-indole-5-carbonitrile]",1 to 10 nM
3,"CCN(CC)C1CCC(c2c[nH]c3ccc(C#N)cc23)C1 (stereo not drawn) [Compound 5, 3-(3-Diethylamino-cyclopentyl)-1H-indole-5-carbonitrile]",1 to 10 nM
4,"N#Cc1ccc2[nH]cc(C3CCC(N4Cc5ccccc5C4)C3)c2c1 (stereo not drawn) [Compound 7, 3-[3-(1,3-Dihydro-isoindol-2-yl)-cyclopentyl]-1H-indole-5-carbonitrile]",1 to 10 nM
5,"N#Cc1ccc2[nH]cc(C3CCC(N4CCc5ccccc5C4)C3)c2c1 (stereo not drawn) [Compound 8, 3-[3-(3,4-Dihydro-1H-isoquinolin-2-yl)-cyclopentyl]-1H-indole-5-carbonitrile]",1 to 10 nM
6,"N#Cc1ccc2[nH]cc(C3CCC(NCCc4ccccc4)C3)c2c1 (stereo not drawn) [Compound 9, 3-(3-Phenethylamino-cyclopentyl)-1H-indole-5-carbonitrile]",1 to 10 nM

# Target: T2, human norepinephrine transporters (Homo sapiens, UniProt P23975)
# T2 construct: host or cells: MDCK cells (also 'HEK-hNET cells'), membrane homogenates
# Assay: Norepinephrine Transporter Binding Assay ([3H]-nisoxetine displacement, hNET cell membranes)
# Conditions: 2.7 nM [3H]-nisoxetine, 1 hr at 4° C., read-out: NE Reuptake (binding Ki)
# Protocol: MDCK cells that stably express human norepinephrine transporters (HEK-hNET cells) were supplied by Receptor Biology, Inc. Pellets were resuspended by homogenization in buffer consisting of 50 mM Tris (pH 7.4 at 25° C.), 120 mM NaCl and 5 mM KCl. Membrane homogenates (200 μl/well, 8 ug protein) were incubated with 2.7 nM [^3H]-nisoxetine (specific activity=80 Ci/mMol) and increasing concentrations of test compounds for 1 hr at 4° C. in a total volume of 250 μl. The assay buffer consisted of 50 mM Tris (pH 7.4 at 25° C.), 120 mM NaCl and 5 mM KCl (pH 7.4 with conc. HCl). Plates were incubated for 1 hr at 4° C., then filtered through 0.5% PEI treated Whatman GF/B filters using a Brandel cell harvester. Filters were washed three times with 3 mL of ice-cold tris wash buffer. Non-specific binding was defined with 10 μM desipramine. Amount of radioligand bound in the presence and absence of competitor was analyzed by plotting (−)log drug concentration versus the amount of radioligand specifically bound. The midpoint of the displacement curve (IC50, nM), signifies the potency. Ki values were calculated using the method of Cheng and Prusoff (1973).
# T2 sequence (P23975 whole entry): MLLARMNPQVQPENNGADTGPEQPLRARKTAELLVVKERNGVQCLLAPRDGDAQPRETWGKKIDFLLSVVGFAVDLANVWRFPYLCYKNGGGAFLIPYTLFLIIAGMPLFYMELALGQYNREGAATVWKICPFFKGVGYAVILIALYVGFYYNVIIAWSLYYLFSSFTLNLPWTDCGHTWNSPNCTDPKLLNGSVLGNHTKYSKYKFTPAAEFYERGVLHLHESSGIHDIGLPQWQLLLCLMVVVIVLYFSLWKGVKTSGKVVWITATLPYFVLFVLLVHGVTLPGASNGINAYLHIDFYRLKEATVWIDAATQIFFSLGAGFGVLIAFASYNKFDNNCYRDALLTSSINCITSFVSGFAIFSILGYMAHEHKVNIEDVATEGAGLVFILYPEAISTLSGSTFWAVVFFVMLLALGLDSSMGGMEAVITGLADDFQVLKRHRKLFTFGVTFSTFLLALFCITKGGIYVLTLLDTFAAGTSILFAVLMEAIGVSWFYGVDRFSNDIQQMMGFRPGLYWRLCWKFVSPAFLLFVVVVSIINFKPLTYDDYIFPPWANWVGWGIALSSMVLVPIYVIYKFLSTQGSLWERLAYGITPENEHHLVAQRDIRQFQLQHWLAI
row,SMILES,Ki
1,"CNC1CCC(c2c[nH]c3ccc(C#N)cc23)C1 (stereo not drawn) [Compound 1, 3-(3-Methylamino-cyclopentyl)-1H-indole-5-carbonitrile]",> 1000 nM
2,"CCNC1CCC(c2c[nH]c3ccc(C#N)cc23)C1 (stereo not drawn) [Compound 2, 3-(3-Ethylamino-cyclopentyl)-1H-indole-5-carbonitrile]",> 1000 nM
3,"CN(C)C1CCC(c2c[nH]c3ccc(C#N)cc23)C1 (stereo not drawn) [Compound 3, 3-(3-Dimethylamino-cyclopentyl)-1H-indole-5-carbonitrile]",> 1000 nM
4,"CCN(C)C1CCC(c2c[nH]c3ccc(C#N)cc23)C1 (stereo not drawn) [Compound 4, 3-[3-(Ethyl-methyl-amino)-cyclopentyl]-1H-indole-5-carbonitrile]",> 1000 nM
5,"CCN(CC)C1CCC(c2c[nH]c3ccc(C#N)cc23)C1 (stereo not drawn) [Compound 5, 3-(3-Diethylamino-cyclopentyl)-1H-indole-5-carbonitrile]",> 1000 nM
6,"N#Cc1ccc2[nH]cc(C3CCC(N4CCCC4)C3)c2c1 (stereo not drawn) [Compound 6, 3-(3-Pyrrolidin-1-yl-cyclopentyl)-1H-indole-5-carbonitrile]",> 1000 nM
7,"N#Cc1ccc2[nH]cc(C3CCC(N4Cc5ccccc5C4)C3)c2c1 (stereo not drawn) [Compound 7, 3-[3-(1,3-Dihydro-isoindol-2-yl)-cyclopentyl]-1H-indole-5-carbonitrile]",> 1000 nM
8,"N#Cc1ccc2[nH]cc(C3CCC(N4CCc5ccccc5C4)C3)c2c1 (stereo not drawn) [Compound 8, 3-[3-(3,4-Dihydro-1H-isoquinolin-2-yl)-cyclopentyl]-1H-indole-5-carbonitrile]",100 to 1000 nM
9,"N#Cc1ccc2[nH]cc(C3CCC(NCCc4ccccc4)C3)c2c1 (stereo not drawn) [Compound 9, 3-(3-Phenethylamino-cyclopentyl)-1H-indole-5-carbonitrile]",100 to 1000 nM
10,"N#Cc1ccc2[nH]cc(C3CCC(N4CCOCC4)C3)c2c1 (stereo not drawn) [Compound 11, 3-(3-Morpholin-4-yl-cyclopentyl)-1H-indole-5-carbonitrile]",> 1000 nM
11,"N#Cc1ccc2[nH]cc(C3CCC(N4CCCCC4)C3)c2c1 (stereo not drawn) [Compound 14, 3-(3-Piperidin-1-yl-cyclopentyl)-1H-indole-5-carbonitrile]",> 1000 nM
12,"CCCNC1CCC(c2c[nH]c3ccc(C#N)cc23)C1 (stereo not drawn) [Compound 16, 3-(3-Propylamino-cyclopentyl)-1H-indole-5-carbonitrile]",> 1000 nM
13,"CNC1CCC(c2cn(C)c3ccc(C#N)cc23)C1 (stereo not drawn) [Compound 17, 1-Methyl-3-(3-methylamino-cyclopentyl)-1H-indole-5-carbonitrile]",> 1000 nM
14,"CCNC1CCC(c2cn(C)c3ccc(C#N)cc23)C1 (stereo not drawn) [Compound 18, 3-(3-Ethylamino-cyclopentyl)-1-methyl-1H-indole-5-carbonitrile]",> 1000 nM
15,"CN(C)C1CCC(c2cn(C)c3ccc(C#N)cc23)C1 (stereo not drawn) [Compound 21, 3-(3-Dimethylamino-cyclopentyl)-1-methyl-1H-indole-5-carbonitrile]",> 1000 nM
16,"CCN(C)C1CCC(c2cn(C)c3ccc(C#N)cc23)C1 (stereo not drawn) [Compound 22, 3-[3-(Ethyl-methyl-amino)-cyclopentyl]-1-methyl-1H-indole-5-carbonitrile]",> 1000 nM
17,"CCN(CC)C1CCC(c2cn(C)c3ccc(C#N)cc23)C1 (stereo not drawn) [Compound 23, 3-(3-Diethylamino-cyclopentyl)-1-methyl-1H-indole-5-carbonitrile]",> 1000 nM
18,"Cn1cc(C2CCC(N3CCCC3)C2)c2cc(C#N)ccc21 (stereo not drawn) [Compound 24, 1-Methyl-3-(3-pyrrolidin-1-yl-cyclopentyl)-1H-indole-5-carbonitrile]",> 1000 nM
